These results are taken from US20250129083A1, “IMIDAZOTETRAZINE COMPOUNDS AND TREATMENT OF TMZ-RESISTANT CANCERS” (THE BOARD OF TRUSTEES OF THE UNIVERSITY OF ILLINOIS, priority 2022, published 2025).

SMILES strings stand for the structures. Read-outs that look alike come from different tables or passages of the source.

Data set [1] deals with T98G GBM cell line. Put plainly: Cell viability assay (Alamar Blue, 7 days), T98G. The data set is classed as cell-based, human. To be noted: Homo sapiens, T98G, 168 h. How it is done: (§1) Cell Culture and Reagents. All cell lines were grown in a 37° C., 5% CO2, humidified environment, in media containing 1% penicillin/streptomycin. Stable cell line generation of GL261 MGMT+ was purchased from Creative Biogene. Cell culture conditions are as follows: cell lines U87, T98G, and RKO were grown in EMEM with 10% FBS. D54, GL261, GL261 MGMT+, and U118MG cell lines were grown in DMEM with 10% FBS. HCT116 cells were grown in RMPI with 10% FBS. D341 Med cells were grown in EMEM with 20% FBS. Temozolomide (TMZ) was purchased from AK Scientific. TMZ analogues were synthesized as described below. Compounds were dissolved in DMSO (1% final concentration, Fisher Chemical) for cell culture studies.
(§2) Cell Viability Assays. Cells were harvested, seeded in a 96-well plate and allowed to adhere. After three hours, compound was added to each well in DMSO (1% final concentration). Cells were incubated for seven days (unless otherwise noted) before viability was assessed by the Alamar Blue assay. Raptinal (20 μM) was used as a dead control.
(Alamar Blue is a resazurin reagent that responds to reducing activity.)

Data set [2] concerns GL261 cells. Put plainly: Cell viability assay (Alamar Blue, 7 days), GL261. It counts as cell-based. The conditions noted are these: Mus musculus, GL261, 168 h. As for the experimental part: as §1, §2
(§3) Plated 1500 c/w for GL261; 600 c/w for U87; 600 c/w for U118MG; 1500 c/w for GL261 MGMT+ Incubated ovn and added 1 μL of compound in DMSO the next day. Incubated over 7 days; added Alamar Blue to assess cell viability and used 10 μM Raptinal as dead control. Error is SEM, n=3.

The test system of data set [3] is GL261 MGMT+ cells. Put plainly: Cell viability assay (Alamar Blue, 7 days), GL261 MGMT+. To be noted: Mus musculus, GL261, 168 h. It counts as cell-based. How it is done:
To further explore the ability of CPZ to evade MGMT-mediated resistance, MGMT-expressing T98G cells were pretreated with MGMT inhibitor O6BG followed by treatment with TMZ or CPZ. […] This cell death potentiation by TMZ upon treatment with an MGMT inhibitor was also observed in MGMT-expressing cell lines U118MG and RKO, whereas the efficacy of CPZ was again unaffected. For MGMT (−)/MMR (−) HCT116 cells, negligible potentiation of TMZ cytotoxicity was observed upon pretreatment with O6BG, confirming that loss of MMR capacity, not MGMT expression, was responsible for resistance to TMZ in HCT116 cells. Additionally, human MGMT was knocked into the MGMT-negative mouse glioma cell line, GL261, establishing the novel cell line GL261 MGMT+.
as §1, §2, §3

Data set [4] deals with expanded panel of GBM cell lines with or without MGMT expression. Put plainly: Cell viability in expanded panel of GBM cell lines. It counts as cell-based. To be noted: for IC50: 168 h, 7 day. How it is done: FIG. 1A-C. Selection and evaluation of MGMT-independent imidazotetrazines. (A) IC50 values (M, 7 days) of TMZ and compound 10 in an expanded panel of GBM cell lines. Cell viability was assessed via the Alamar Blue assay, n≥3, error is SEM. (B) Hydrolytic stability of TMZ at pH 7, 7.4, and 8. Percentage of prodrug remaining was quantified by HPLC, n≥2. (C) Hydrolytic stability of compound 10 at pH 7, 7.4, and 8. Percentage of prodrug remaining was quantified by HPLC, n≥2.
FIG. 2A-F. (A) 7 day IC50 values (M) of compound 10 and CPZ in an expanded panel of GBM cell lines. Cell viability was assessed via the Alamar Blue assay, n≥3, error is SEM. (B-E) 7 day dose-response curves of TMZ and CPZ in cell lines with variable MGMT and MMR status. Error is SEM, n≥3. (F) Killing kinetics of CPZ compared to TMZ in the U87 cell line. Cells were treated with compound once and viability was assessed every 24 hours via Alamar Blue assay. Error is SEM, n≥2.
as §2

For data set [5], the system named is T98G cells. Description: Cytotoxicity after pretreatment with MGMT inhibitor O6BG. It counts as cell-based, human. To be noted: T98G pretreated (3 hours) with O6BG vs non-pretreated. How it is done:
FIG. 3A-E. Investigation of the mechanism of action and efficacy of CPZ in MGMT+ cell lines. (A) Detection of O^6-methyl-2′-deoxyguanosine or O^6-propargyl-2′-deoxyguanosine in GL261 cells after treatment with TMZ or CPZ, respectively. GL261 cells were treated with the indicated concentration of compound for 8 hours before they were harvested and genomic DNA was extracted. DNA (10 μg) was hydrolyzed and submitted to LC-MS/MS for quantitation. Both O^6-Me-dG and O^6-proparyl-dG were below the limit of detection in the DMSO control. Error is SEM, n≥3. Cytotoxicity of TMZ (B) or CPZ (C) in T98G cells pretreated (3 hours) with MGMT inhibitor O6BG. Error is SEM, n≥3. (D) 7 day dose-response curves of TMZ and CPZ in GL261 cells. Error is SEM, n≥3. (E) 7 day dose-response curves of TMZ and CPZ in GL261 MGMT+ cells. Error is SEM, n≥3.
To further explore the ability of CPZ to evade MGMT-mediated resistance, MGMT-expressing T98G cells were pretreated with MGMT inhibitor O6BG followed by treatment with TMZ or CPZ. […] This cell death potentiation by TMZ upon treatment with an MGMT inhibitor was also observed in MGMT-expressing cell lines U118MG and RKO, whereas the efficacy of CPZ was again unaffected. […]

Data set [6] is described as follows: Hydrolytic stability studies. The conditions noted are these: PBS; for Hydrolytic stability: percentage of prodrug remaining after 2 hours: pH 7.4, 37° C., HPLC; for half-life at 100 μM: 37° C. It counts as physicochemical. As for the experimental part:
Hydrolytic Stability Studies. Compound (100 μM) was incubated at 37° C. in PBS at pH 7.4 (unless otherwise noted). At the indicated time point, an aliquot was collected and analyzed by HPLC. Compound peaks were integrated and compared to the integration at to calculate the percentage of prodrug remaining.

Data set [7] relates to E. coli WP2 uvrA pKM101 strain. Put plainly: Ames test, E. coli WP2 uvrA pKM101. It counts as cell-based. The conditions noted are these: 30 μM. How it is done: Next, we measured the mutagenicity of CPZ versus TMZ. TMZ and other DNA methylating chemotherapies are known mutagens, inducing G:C→A:T mutations due to erroneous recognition of O^6-methylguanine. […] CPZ and TMZ (at 30 μM) were also assessed in the E. coli WP2 uvrA pKM101 strain, which is considered one of the more sensitive Ames tester strains available.
A general note: The Ames test uses bacterial strains that need an amino acid and regain growth without it when mutated back.

Data set [8] can be described thus: Solubility in IV formulations. The conditions noted are these: for Solubility in 20/80 DMSO/PBS / Solubility in 15/7/5/73 DMSO/NMP/T20/20% SPE-βCD / Solubility in 15/10/75 DMSO/NMP/20% SPE-βCD: IV formulation; for Solubility in 20/80 DMSO/PBS: 5 mg/mL solution for 100 μL injection; for Solubility in 15/7/5/73 DMSO/NMP/T20/20% SPE-βCD / Solubility in 15/10/75 DMSO/NMP/20% SPE-βCD: 6.6 mg/mL solution for 200 μL injection. The data set is classed as physicochemical.

The mark [9] stands for this setting: MGMT (+) MMR (+), read-out: Activity, T98G.
Setting [10] is: 7 day dose-response, read-out: IC50, GL261 (parental).
[11] abbreviates: MGMT (−) MMR (+), 7 days, 1500 c/w, SEM, n=3, read-out: Activity, GL261.
Setting [12] is: 7 day dose-response, human MGMT knock-in, read-out: IC50, GL261 MGMT+.
The mark [13] stands for this setting: MGMT (+) MMR (+), 7 days, 1500 c/w, SEM, n=3, read-out: Activity, GL261 MGMT+.
Setting [14] is: pH 7.4, calculated from hydrolytic stability data, read-out: Half-life, pH 7.4.

In general, half-life refers to the time needed for the level to fall by half in the phase considered. For the compound `C#CCn1nnc2c(Cl)ncn2c1=O` [CPZ, 8-chloro-3-(prop-2-yn-1-yl)imidazo[5,1-d][1,2,3,5]tetrazin-4(3H)-one], the IC50 in data set [1] (setting [9]) came to 27 ± 6 µM; in data set [2] (setting [10]), 28 µM; in data set [2] (setting [11]), 28 ± 3 µM; in data set [3] (setting [12]), 29 µM; in data set [3] (setting [13]) it was 29 ± 5 µM; in data set [4] (read-out: Average IC50 in MGMT (+) cell lines), 22 µM. Also, in data set [4] (read-out: Average IC50 in MGMT (−) cell lines), the IC50 was 16 µM. In data set [5], the “Potentiation of cell death by O6BG pretreatment” value is “No such enhancement in activity”. Further, the “Hydrolytic stability: percentage of prodrug remaining after 2 hours” value in data set [6] was determined as 30%. The half-life at 100 μM in data set [6] (setting [14]) was 1.2 h. Besides, in data set [7], the “Ames test revertant colonies, E. coli WP2 uvrA pKM101” value was “no revertant colonies”. Besides, the “Mutagenicity, E. coli WP2 uvrA pKM101” value in data set [7] is reported as “non-mutagenic”. In addition, in data set [8], the “Solubility for IV administration” value was “insufficient solubility for IV administration”. For the same compound, in data set [8], the “Solubility in 20/80 DMSO/PBS” value is given as “Insoluble”. Besides, the “Solubility in 15/7/5/73 DMSO/NMP/T20/20% SPE-βCD” value in data set [8] was “Insoluble”. Also, the “Solubility in 15/10/75 DMSO/NMP/20% SPE-βCD” value in data set [8] was “Insoluble”.

As to `Cn1nnc2c(C(N)=O)ncn2c1=O` [TMZ, temozolomide, reference compound], the IC50 in data set [1] (setting [9]) was 570 ± 20 µM; in data set [1] (MGMT (+), Alamar Blue, error SEM, n ≥ 3, read-out: Seven-day IC50, T98G), above 550 µM; in data set [2] (setting [10]), 120 µM; in data set [2] (setting [11]) it was 120 ± 62 µM; in data set [3] (setting [12]), above 1000 µM; in data set [3] (setting [13]), above 1000 µM. In addition, the “Difference in IC50 values between MGMT-negative and positive cell lines” value in data set [4] (expanded GBM panel) was above 6 fold. Moreover, the “Potentiation of cell death by O6BG pretreatment” value in data set [5] is reported as “dramatic potentiation of cell death”. The half-life at 100 μM in data set [6] (pH 7, calculated from hydrolytic stability data, read-out: Half-life, pH 7) is 2.97 ± 0.0833 h; in data set [6] (setting [14]), around 1.5 h; in data set [6] (pH 8, calculated from hydrolytic stability data, read-out: Half-life, pH 8) it was 0.483 ± 0.0167 h. For the same compound, the “Hydrolytic stability: percentage of prodrug remaining after 2 hours” value in data set [6] was 40%. Moreover, the “Ames test revertant colonies, E. coli WP2 uvrA pKM101” value in data set [7] was 95/96. Besides, the “Mutagenicity, E. coli WP2 uvrA pKM101” value in data set [7] is reported as “mutagenic”. Besides, the “Solubility in 20/80 DMSO/PBS” value in data set [8] is given as “Soluble*”. In data set [8], the “Solubility in 15/7/5/73 DMSO/NMP/T20/20% SPE-βCD” value is listed as “Soluble”. Moreover, the “Solubility in 15/10/75 DMSO/NMP/20% SPE-βCD” value in data set [8] is given as “Soluble”.
